{"source": "patent EP0073758B1", "about": "“TREATMENT OF INFLAMMATORY VIRAL INFECTIONS, ACNE, DERMATITIS AND ARTHRITIS CONDITIONS” (priority 1981, dated 1982)", "key": {"[1]": {"details": "ingested into the human body; rest excreted in the feces; cited from earlier work"}, "[2]": {"assay": "topical application in acne", "assay_type": "in vivo", "details": "500 milligrams in 57 g of carrier", "from_the_text": "In preparing topical applications for the treatment of external conditions, such as dermatitis and acne as well as arthritis, rheumatism, and related conditions, it is within the scope of the invention to formulate phenolphthalein with suitable carriers and bases to aid in the application to, or absorption into, the target or affected area. One group of carriers is the oil-based carriers for external application this group includes dimethyl sulfoxide (DMSO), petrolatum, mineral oil, and anhydrous lanolin. In most topical applications the concentration of the phenolphthalein in the carrier may vary widely. […] It is believed that a concentration of at least about 250 milligrams per 28 g of carrier will be effective."}, "Herpes Labialis": {"system": "Herpes Labialis", "assay_type": "in vivo, patients", "protocol": "In an informal clinical study 41 patients with symptoms of Herpes Labialis were treated with oral dosages of phenolphthalein. The patients were treated at different times over a period of about two months. The initial dosage was one hundred milligrams administered every 8 hours for the first day and every 12 hours thereafter. […] Of the 41 patients treated, 39 made complete recovery within two days without any noticeable development of the cold sore. The other two patients made complete recovery with no swelling or visible evidence of the cold sore remaining after three days. A control group of 24 patients with Herpes Labialis history were selected at random from clinical files as a control group. Of the 24 patients, 5 were excluded because of the total absence of early indications of infection. The other 19 patients were treated conventionally over a 10 day period. Only 4 experienced even partial relief from developing cold sores and 15 developed active cold sores and blisters which lasted up to 4 weeks.\nThe results of this informal study indicate that phenolphthalein is a very effective drug for preventing and arresting the development of cold sores and blisters at the time of initial appearance in patients."}, "[3]": {"system": "Herpes Simplex infections", "assay": "oral dosages administered to victims of Herpes Simplex infections", "assay_type": "in vivo"}, "[4]": {"details": "stated as well known; cited from earlier work"}, "solubility in DMSO": {"assay": "solubility in DMSO", "assay_type": "physicochemical", "details": "per one milliliter DMSO; maximum solubility not determined", "protocol": "Topical applications were prepared for the treatment of the external conditions, deseases and symptoms of arthritis, rheumatism, and rheumatoid arthritis or similar conditions. Phenolphthalein was formulated with a topical carrier of dimethyl sulfoxide (DMSO) to aid in the application of phenolphthalein to, and its absorption into, the affected area for the relief of pain and the treatment of the area. It has been discovered that DMSO is an especially effective solvent for phenolphthalein. As little as one milliliter of liquid DMSO will dissolve two-hundred milligrams of phenolphthalein, or powders containing phenolphthalein. This factor coupled with the known ability of DMSO to penetrate organic tissue are believed to allow smaller dosages of phenolphthalein to be used in both oral and topical applications as well as in preparation of injectable solutions. For example the DMSO/phenol- phthalein solution can be formulated into topical carriers which should enhance the penetration of phenolphthalein into the skin, or ingested."}, "[5]": {"assay": "oral dosages against canker sores", "assay_type": "in vivo"}}, "data": [{"smiles": "O=C1OC(c2ccc(O)cc2)(c2ccc(O)cc2)c2ccccc21", "note": "[phenolphthalein, 3,3 - Bis(p - hydroxyphenyl) - phthalide]", "values": [{"measurement": "active drug in solution absorbed into the blood stream", "setting": "[1]", "result": "less than 15%"}, {"measurement": "effect against acne", "setting": "[2]", "result": "effective against acne"}, {"measurement": "laxative effect", "setting": "Herpes Labialis; human, in vivo, po", "result": "complaints related to the laxative effect"}, {"measurement": "patients who made complete recovery within two days without any noticeable development of the cold sore", "setting": "Herpes Labialis; of the 41 patients treated, oral, initially one hundred milligrams, later 30 milligrams, every 8 hours first day, every 12 hours thereafter", "result": 39}, {"measurement": "patients who made complete recovery with no swelling or visible evidence of the cold sore remaining after three days", "setting": "Herpes Labialis; of the 41 patients treated, same oral regimen", "result": "two"}, {"measurement": "follow-up observations: development of Herpes Labialis", "setting": "Herpes Labialis; the 41 patients treated", "result": "no development of Herpes Labialis"}, {"measurement": "treatment of Herpes Simplex infections, including cold sores, fever blisters and Herpes Genitalis", "setting": "[3]", "result": "successfully administered"}, {"measurement": "solubility in water", "setting": "[4]", "result": "highly insoluble in water"}, {"measurement": "amount dissolved by one milliliter of liquid DMSO", "setting": "solubility in DMSO", "result": "two-hundred"}, {"measurement": "relief and cure of canker sores", "setting": "[5]", "result": "effective to relieve and cure canker sores within a matter of hours"}]}]}
